| melting point | Compound |
| --- | --- |
| 174 to 176 °C | COC(=O)c1cccc2c(=O)c3cccc(I)c3[nH]c12 |
| 138 to 140 °C | Cc1ccc(O)c(NC(=O)c2ccc(OCCCCc3ccccc3)cc2)c1 |
| 32 °C | CC(C)(C)OC(=O)Nc1cc(OCC2COC(C)(C)O2)c(C#Cc2ccccc2)cc1[N+](=O)[O-] (racemic) |
| 132 to 133 °C | COC(=O)COCc1cc(C(C)(C)C)c(O)c(C(C)(C)C)c1 |
| 159 to 161 °C | CC(C)(C)OC(=O)NC(COc1noc2ccc(Cl)cc12)Cc1cc(O)no1 (stereo not given) |
| 117 to 120 °C | O=C(NCc1ccc(Cl)cc1)c1noc2ccc(C#CCO)cc2c1=O |
| 184 °C | COc1ccc(C2=NN(Cc3ccc(NC(=O)c4cccnc4)cc3)C(=O)CC2)cc1OC |
| 143 °C | CCNc1cc(C)c(S(=O)(=O)C[N+](=O)[O-])c(C)c1 |
| 151 to 152 °C | CC(CCCC(C)(C)O)C1CCC2C3=CC=C4CCCC(O)C4(C)C3CCC21C (stereo not given) |
| 93 to 95.5 °C | CC(C)(C)c1cc(CCC(=O)ON(Cc2ccccc2)Cc2ccccc2)cc(C(C)(C)C)c1O |
| 97 to 100 °C | CCSC(=NC(C)=O)Nc1c(Cl)cccc1Cl |
| 136 to 137 °C | COC(=O)CC(C(=O)OC)N1C(=O)C2NC(C)(C)SC21 (stereo not given) |
| 155 to 160 °C | CC1(C)CCC(C)(C)c2cc(-c3cc(-c4ccc(C(=O)O)cc4)ccc3OCCCCCCCCO)ccc21 |
| 184 to 185 °C | O=C(O)CC(Cc1c[nH]c2ccccc12)(C(=O)O)C(=O)O |
| 120 to 130 °C | COc1ccc(CN(C)CCCSc2ccc(NC(=O)c3cccc4c(=O)c5cccc(F)c5[nH]c34)cc2)cc1OC |
| 93 to 94 °C | COc1ccc(Sc2ccncc2)c(N)c1 |
| 191 °C | CCOC(=O)/C=C/c1ccc(OCCCS(C)(=O)=O)cc1Oc1ncc(C(F)(F)F)cc1Cl |

| melting point | Compound |
| --- | --- |
| 246 to 248 °C | CC(=O)N(C)c1ccc2sc3ccccc3c(=O)c2c1 |
| 129 to 130 °C | COc1cccc(CC(=O)O)c1OCc1cc(OC(C)C)nn1Cc1ccc2ccccc2n1 |
| 148 to 152 °C | COP(=O)(OC)C(C)NC(=O)C(C)NC(=O)C(C)NC(=O)CNC(C)(C)C (stereo not given) |
| 250 to 252 °C | CC(=O)OC[C@H]1NC(=O)[C@@H](Cc2cn(C)c3ccccc23)NC1=O |
| 163 to 166 °C | CN(Cc1sc2c(=O)c(C(=O)NCc3ccc(Cl)cc3)cn(C)c2c1COCC[Si](C)(C)C)CC(O)c1ccc2ccccc2n1 (stereo not given) |
| 160 to 163 °C | O=C(O)c1cc2c(cc1[N+](=O)[O-])OCO2 |
| 88 to 90 °C | Cc1cccc(-c2n[nH]cc2-c2ccc(F)c(-c3ccc(S(=O)(=O)CCO)cc3)c2)n1 |
| 225 to 227 °C | COc1ccc(C(=O)Nc2ccccc2)cc1NC(=NC#N)Nc1cc(Cl)cc(Cl)c1 |
| 144 °C | COC(=O)n1cc(Cl)c(-c2cc(Cl)cc(Cl)c2)n1 |
| 88 °C | CCN(CC)C(=O)c1cc(-c2ccc(OC)cc2)c2ccsc2c1 |
| 124 to 126 °C | CS(=O)(=O)c1cccc(C/C=C(/F)CN2C(=O)c3ccccc3C2=O)c1 |
| 72 °C | CCc1ccc(N(C(=O)CCl)c2c(F)c(F)cc(F)c2F)cc1 |
| 92 to 94 °C | CSNC(=O)c1c(Cl)cccc1[Si](C)(C)C |
| 110 to 112 °C | O=C(O)c1ccc(OC(F)(F)F)c(Cl)c1 |
| 94.5 to 95 °C | COC(=O)NNC(=S)Cc1ccc(OC)cc1 |
| 93 to 94 °C | COC(=O)NC(CCSC)C(N)=O (racemic) |

Second part, the compound before the results:

| Compound | melting point |
| --- | --- |
| O=c1cc2c(nn1-c1ccc(Cl)cc1)-c1cc(CO)sc1CC2 | 195 to 197 °C |
| N#Cc1nn(-c2c(Cl)cc(C(F)(F)F)cc2Cl)c(-n2ccnc2)c1S(=O)(=O)C(F)(F)F | 214 to 215 °C |
| COC(c1ccc(Cl)cc1)(c1cc2c3c(c1)c(-c1cccc(Cl)c1)cc(=O)n3CCC2)c1nncn1C (stereo not given) | 132 °C |
| Nc1nc(Cl)c2c(n1)OCC2 | 258 to 263 °C |
| NC(=O)c1ccc(C2CCCCCC2)c(Cl)c1 | 152 to 155 °C |
| CCc1nc(/C=C\c2cn(-c3ccccc3)nc2OCc2ccc(OCc3nc(-c4ccco4)oc3C)c(OC)c2)cs1 | 108 to 109 °C |
| O=C(c1ccc(F)cc1)C1CCN(CCn2c(=O)[nH]c3ccsc3c2=O)CC1 | 141 to 143 °C |
| OCC1CCN(CC(O)c2ccc(F)cc2)CC1 (stereo not given) | 113 °C |
| Cc1ccc2nc(-c3ccc(C=O)cc3)cn2c1 | 210 to 211 °C |
| CC(O)c1cccc(C=Cc2ccc3cc(F)ccc3n2)c1 (stereo not given) | 107 to 109 °C |
| CCCCCC(O)C1C(=O)NC2(C(O)C3C=CCCC3)C(=O)OC12C (stereo not given) | 144 °C |
| O=C1CCC(c2c[nH]c3ccccc23)CC1 | 123 to 125 °C |
| CN(C)NC1=C2N=c3cc(Cl)ccc3=C2Oc2ccccc2N1C | 196 to 197 °C |
| Cc1cc(COc2cccc3c2CN(C2CCC(=O)NC2=O)C3=O)ccc1Cl (stereo not given) | 217 to 219 °C |
| O=c1ccc2c(-c3ccco3)nccc2[nH]1 | > 300 °C |
| CN(C)c1cccc2c1c(=O)n(C)c1c(-c3nc(C4CC4)no3)ncn21 | 214 °C |
| O=[N+]([O-])c1cnccc1NCc1c(F)cccc1F | 148 to 149 °C |
| COc1nc2c(cc1NC(=S)N1CCN(c3cc(C)cc(C)c3)CC1)CCCC2 | 200 to 201 °C |
| ON=c1cc(-c2cc3cccn3cn2)oc2ccc(OCCCOc3cccnc3)cc12 | 202 to 205 °C |

| Compound | melting point |
| --- | --- |
| COc1cc(COc2nn(-c3ccccc3)cc2C=O)ccc1OCc1nc(-c2ccccc2)oc1C | 142 to 143 °C |
| Cc1cc(C(=O)NC2CC2)ccc1N1CCNCC1 | 172 to 173 °C |
| COc1cn(-c2cc(F)c(N3CCOCC3)cc2F)nc(-c2ccnn2-c2ccccc2)c1=O | 211 to 212 °C |
| O=c1ccc2cc([C@H](c3cccc(C(F)(F)F)c3)n3cncn3)ccc2[nH]1 | 176 °C |
| N#CC1=C(c2ccccc2)Nc2n[nH]cc2C1c1cccc(Cl)c1Cl (stereo not given) | 162 °C |
| Cn1nc(Cl)cc(Br)c1=O | 107 to 108 °C |
| C=CCN(C1CCN(C)CC1)S(=O)(=O)c1ccc(Nc2nccc(Nc3ccc(F)cc3)n2)cc1 | 167 °C |
| COc1ccc2nc(C)cc(-n3cncn3)c2c1 | 117 to 118 °C |
| Cc1ccnc(C)c1Cn1nnnc1-c1cccc(Cl)c1Cl | 146 to 148 °C |
| CCc1nnc2c(O)nc3cc(Cl)ccc3n12 | > 300 °C |
| CC(=O)c1ccccc1NC(C#N)c1c(Cl)cccc1Cl (stereo not given) | 179 °C |
| CC(C)c1cccc(-c2ccc(F)cc2)c1/C=C/CO | 71 to 72 °C |
| COc1ccc(/C=C(\C#N)c2cccnc2)cc1OC1CCCC1 | 86.5 to 87.5 °C |
| CC(C)C(C)(C#N)N1C(=O)c2ccc3ccn(C)c3c2C1=O (stereo not given) | 134 to 138 °C |
| N#Cc1cc(F)c(-n2nc3ccc(Cl)cn3c2=O)cc1O | > 260 °C |
| NCC1CCN(CC(=O)Nc2cccc3c2C(=O)c2c-3n[nH]c2-c2ccc(N3CCOCC3)cc2)CC1 | 240 °C |
| CCN1CCc2cc(OC)c(OC)cc2C1C1CC(C(=O)N2CCN(c3ccccn3)CC2)CCC12c1cc(OC)c(OC)cc1CCN2CC (stereo not given) | 115 to 117 °C |
| CC(NC(=O)Cc1cc(F)cc(F)c1)C(=O)C1(N)N=C(c2ccccc2F)c2ccccc2N(C)C1=O (stereo not given) | 185 to 188 °C |
